Assay results taken from patent US12139478B2, “Compounds, compositions and methods” (Denali Therapeutics Inc., priority 2017, dated 2024).

The compounds below were run on ATF4 translation (assay: ATF4 Nano Luciferase reporter integrated stress response (ISR) assay in H4 ATF4-NLuc cells). Conditions: Homo sapiens, 0.5 h; H4 ATF4-NLuc (clone 17) cells; compound 30 minutes, then sodium arsenite for 6 additional hours; luminescence readout; read-out: Activity.
Format: cell-based, human
Text: Cellular stress leads to activation of the integrated stress response pathway through one of four eukaryotic initiation factor 2a kinases and halts global translation, while allowing for the translation of select transcripts like ATF4 (activating transcription factor 4) that are important for the response to cellular stress. During normal conditions, small open reading frames (ORFs) in the 5′ UTR of ATF4 occupy the ribosome and prevent translation of the coding sequence of ATF4. During stress conditions however, the ribosome scans past these upstream ORFs and preferentially begins translation at the coding sequence of ATF4. In this way, the translation, and thus protein level of ATF4 is a readout of ISR pathway activation. Thus, a fusion of the uORFs and the beginning of the coding sequence of ATF to a common cellular reporter like nano-luciferase allows for a sensitive and high-throughput readout of ISR pathway activity.
Compounds as provided herein were tested in the following assay. The ATF4 Nano Luciferase reporter was constructed by fusing the human full length 5′ untranslated region (5′-UTR) and a small portion of the coding sequence of the ATF4 gene upstream of the Nano Luciferase (NLuc) coding sequence lacking it's start codon. Specifically, nucleotides +1 through +364 (relative to the transcriptional start site) of ATF4 transcript variant 2 (NCBI NM_182810.2) flanked 5′ by EcoRI and 3′ by BamHI restriction enzyme sites were synthesized and cloned into the EcoRI/BamHI cloning sites of pLVX-EF1a-IRES-Puro lentivirus vector (Clontech). Lentiviral particles were produced with Lenti-X single shots (VSV-G, Clontech) according to the manufacturer's instructions and used to transduce a human H4 neuroglioma cell line (ATCC HTB-148). H4 cells were selected with 1.25 μg/mL Puromycin, and clonal cell lines generated by limiting dilution. We utilized this cell line to generate an integrated stress response (ISR) assay to evaluate the activity of ISR pathway inhibitors via luminescence readout. The H4 ATF4-NLuc (clone 17) cell line is plated at a density of […] in 96-well or 384-well respectively in DMEM+[…]. 24-hours later test compounds diluted in dimethyl sulfoxide (DMSO) are added for 30 minutes at 37° C., followed by ISR pathway activation with […] sodium arsenite aqueous solution for 6 additional hours. Nano Glo luciferase reagent (N1150, Promega) is added according to manufacturer instructions and the luminescence signal (corresponding to the level of ATF4 translation and thus ISR pathway activation) is read with a standard plate reader with luminescence detection capabilities. […] In the tables below, activity of the tested compounds is provided, and in Table 3 as follows: […]; ++=IC50 1-10 μM; +=IC50>10 μM.

Row | IC50 | Structure (SMILES)
1 | < 1000 nM | COC1C[C@@H](c2nnc([C@H]3C[C@@H](OC(F)(F)F)C3)o2)OC[C@@H]1NC(=O)COc1ccc(F)cc1 (stereo partly drawn) [Example 33, 2-(4-fluorophenoxy)-N-((3S,6S)-4-methoxy-6-(5-(3-cis-(trifluoromethoxy)cyclobutyl)-1,3,4-oxadiazol-2-yl)tetrahydro-2H-pyran-3-yl)acetamide]
2 | < 1000 nM | O=C(COc1ccc(F)cc1)N[C@H]1CO[C@H](c2nnc([C@H]3C[C@@H](OC(F)(F)F)C3)o2)CC1(F)F [Example 35, N-[(3S,6S)-4,4-difluoro-6-[5-[3-cis-(trifluoromethoxy)cyclobutyl]-1,3,4-oxadiazol-2-yl]tetrahydropyran-3-yl]-2-(4-fluorophenoxy)acetamide]
3 | < 1000 nM | CO[C@H]1C[C@@H](NC(=O)COc2ccc(F)cc2)CO[C@@H]1c1nnc([C@H]2C[C@@H](OC(F)(F)F)C2)o1 [Example 36, 2-(4-fluorophenoxy)-N-((3R,5S,6S)-5-methoxy-6-(5-(3-cis-(trifluoromethoxy)cyclobutyl)-1,3,4-oxadiazol-2-yl)tetrahydro-2H-pyran-3-yl)acetamide]
4 | < 1000 nM | O=C(COc1ccc(F)cc1F)N[C@@H]1CC[C@@H](c2nnc([C@H]3C[C@@H](OC(F)(F)F)C3)o2)OC1 [Example 37, 2-(2,4-difluorophenoxy)-N-[(3R,6S)-6-[5-[3-cis-(trifluoromethoxy)cyclobutyl]-1,3,4-oxadiazol-2-yl]tetrahydropyran-3-yl]acetamide]
5 | < 1000 nM | O=C(COc1ccc(F)cc1)N[C@@H]1CC[C@@H](c2nc(C3CC(OC(F)(F)F)C3)no2)OC1 (stereo partly shown) [Example 38]
6 | < 1000 nM | O=C(COc1ccc(C(F)(F)F)nc1)N[C@@H]1CC[C@@H](c2nnc([C@H]3C[C@@H](OC(F)(F)F)C3)o2)OC1 [Example 39, N-[(3R,6S)-6-[5-[3-cis-(trifluoromethoxy)cyclobutyl]-1,3,4-oxadiazol-2-yl]tetrahydropyran-3-yl]-2-[[6-(trifluoromethyl)-3-pyridyl]oxy]acetamide]

Second part, the compound before the results:

Row | Structure (SMILES) | IC50
7 | Cc1ccc(OCC(=O)N[C@@H]2CC[C@@H](c3nnc([C@H]4C[C@@H](OC(F)(F)F)C4)o3)OC2)cc1 [Example 28, 2-(4-methylphenoxy)-N-[(3R,6S)-6-[5-[3-cis-(trifluoromethoxy)cyclobutyl]-1,3,4-oxadiazol-2-yl]tetrahydropyran-3-yl]acetamide] | < 1000 nM
8 | O=C(COc1ccc(Cl)c(F)c1)N[C@@H]1CC[C@@H](c2nnc(COC(F)(F)F)o2)OC1 [Example 30, 2-(4-chloro-3-fluorophenoxy)-N-((3R,6S)-6-(5-((trifluoromethoxy)methyl)-1,3,4-oxadiazol-2-yl)tetrahydro-2H-pyran-3-yl)acetamide] | < 1000 nM
9 | O=C(COc1ccc(Cl)cc1F)N[C@@H]1CC[C@@H](c2nnc([C@H]3C[C@@H](OC(F)(F)F)C3)o2)OC1 [Example 31, 2-(4-chloro-2-fluoro-phenoxy)-N-[(3R,6S)-6-[5-[3-cis-(trifluoromethoxy)cyclobutyl]-1,3,4-oxadiazol-2-yl]tetrahydropyran-3-yl]acetamide] | < 1000 nM
10 | O=C(COc1ccc(F)cc1)N[C@H]1CO[C@H](c2nnc([C@H]3C[C@@H](OC(F)(F)F)C3)o2)C2CC21 (stereo partly drawn) [Example 32, 2-(4-fluorophenoxy)-N-((2S,5R)-2-(5-(3-cis-(trifluoromethoxy)cyclobutyl)-1,3,4-oxadiazol-2-yl)-3-oxabicyclo[4.1.0]heptan-5-yl)acetamide] | < 1000 nM
11 | O=C(COc1ccc(F)cc1F)NC12CCC(c3nnc([C@H]4C[C@@H](OC(F)(F)F)C4)o3)(CC1)OC2 [Example 34, 2-(2,4-difluorophenoxy)-N-[1-[5-[3-cis-(trifluoromethoxy)cyclobutyl]-1,3,4-oxadiazol-2-yl]-2-oxabicyclo[2.2.2]octan-4-yl]acetamide] | < 1000 nM

Same assay, conditions: Homo sapiens, 0.5 h; H4 ATF4-NLuc (clone 17) cells; compound 30 minutes, then sodium arsenite for 6 additional hours; luminescence readout; read-out: Biological Example 1 (ATF4 translation, IC50 nM)

Row | IC50 | Structure (SMILES)
12 | 421 nM | COC1C[C@@H](c2nnc([C@H]3C[C@@H](OC(F)(F)F)C3)o2)OC[C@@H]1NC(=O)COc1ccc(F)cc1 (stereo partly drawn) [Example 33, 2-(4-fluorophenoxy)-N-((3S,6S)-4-methoxy-6-(5-(3-cis-(trifluoromethoxy)cyclobutyl)-1,3,4-oxadiazol-2-yl)tetrahydro-2H-pyran-3-yl)acetamide]
13 | 36 nM | O=C(COc1ccc(C(F)(F)F)nc1)N[C@@H]1CC[C@@H](c2nnc([C@H]3C[C@@H](OC(F)(F)F)C3)o2)OC1 [Example 39, N-[(3R,6S)-6-[5-[3-cis-(trifluoromethoxy)cyclobutyl]-1,3,4-oxadiazol-2-yl]tetrahydropyran-3-yl]-2-[[6-(trifluoromethyl)-3-pyridyl]oxy]acetamide]
